According to patent US4714706A, “Pyridyloxy derivatives and their use as insecticides” (Sumitomo Chemical Company, Limited, priority 1985, dated 1987):
Like-named read-outs stand apart in the source and are kept apart here.

Experiments:
[1] = test system: common mosquito (Culex pipiens pallens); experiment: Rate of emergence of last instar larvae of common mosquito reared 7 days in treated water (Test Example 1); format: in vivo; conditions: 3.5 ppm
Protocol: An emulsifiable concentrate prepared according to Formulation Example 1 was diluted with water to make a 400 fold dilution. The dilution (0.7 ml) was added to 100 ml of distilled water. Last instar larvae of common mosquito (Culex pipiens pallens) were released therein and reared for 7 days until their emergence. The rate of emergence was observed according to the following criteria: […]

[2] = test system: housefly (Musca domestica); experiment: Emergence inhibition of housefly larvae reared in treated artificial culture (Test Example 2); format: in vivo; conditions: read-out: Emergence inhibition
Protocol: Powdered animal feed (2 g) was thoroughly mixed with bran (14 g). An emulsifiable concentrate prepared according to Formulation Example 1 was diluted with water to a designed concentration and the dilution was added to the above mixture. The resultant mixture was stirred well to make an artificial culture. Thirty larvae of housefly (Musca domestica) were reared therein until their pupation. The obtained pupae were placed into a plastic cup, and the rate of emergence was determined. According to the following equation, the emergence inhibition (%) was calculated: [formula]

[3] = last instar larvae of Culex pipiens pallens, reared 7 days
[4] = 0.3 ppm, Musca domestica larvae

In the case of `COC(C)(C)CCCC(C)C/C=C/C(C)=C/C(=O)OC(C)C` (stereo not drawn) [(a), methoprene, reference compound], the Rate of emergence ([1]; 168 h) is reported as “A (less than 10%)”, the inhibition at 0.3 ppm ([2]; Musca domestica) is reported as 2% and the inhibition at 1 ppm ([2]; Musca domestica) is reported as 13%. The inhibition at 3 ppm ([2]; Musca domestica) was 60%.
In the case of `CC(C)COc1ccc(OCCOc2ccccn2)cc1` [Compound No. 2], the Rate of emergence [1, 3] is reported as “A (less than 10%)”, the inhibition at 0.3 ppm [2, 4] is reported as 3% and the inhibition at 1 ppm ([2]; 1 ppm, Musca domestica larvae) is reported as 42%. It also gave an inhibition at 3 ppm ([2]; 3 ppm, Musca domestica larvae) of 100%.
`CC(C)CCOc1ccc(OCCOc2ccccn2)cc1` [Compound No. 7] was tested, and the Rate of emergence [1, 3] was “A (less than 10%)”, the inhibition at 0.3 ppm [2, 4] was 31% and the inhibition at 1 ppm ([2]; 1 ppm, Musca domestica larvae) was 87%. For the same compound, the inhibition at 3 ppm ([2]; 3 ppm, Musca domestica larvae) was 100%.
With `CCCCOc1ccc(OCCOc2ccccn2)cc1` [Compound No. 9] the Rate of emergence [1, 3] was “A (less than 10%)”.
`CC(C)CCOc1ccc(OCCSc2ccccn2)cc1` [Compound No. 22] was tested, and the Rate of emergence [1, 3] was “A (less than 10%)”.
In the case of `CC(C)COCc1ccc(OCCOc2nccs2)cc1` [Compound No. 29], the Rate of emergence [1, 3] is reported as “A (less than 10%)”, the inhibition at 0.3 ppm [2, 4] is reported as 100% and the inhibition at 1 ppm ([2]; 1 ppm, Musca domestica larvae) is reported as 100%. The inhibition at 3 ppm ([2]; 3 ppm, Musca domestica larvae) was 100%.
With `COC(C)(C)CCCC(C)CCCCOc1ccccn1` (stereo not drawn) [compound 1] the Rate of emergence [1, 3] was “A (less than 10%)”.
In the case of `COC(C)(C)COc1ccc(OCCOc2ccccn2)cc1` [compound 3], the Rate of emergence [1, 3] is reported as “A (less than 10%)”.
With `CC(C)CCCC(C)CCCCOc1ncccn1` (stereo not drawn) [compound 4] the Rate of emergence [1, 3] was “A (less than 10%)”.
In the case of `C=C(C)COc1ccc(OCCOc2ccccn2)cc1` [compound 5], the Rate of emergence [1, 3] is reported as “A (less than 10%)”.
For `C=CCOc1ccc(OCCOc2ccccn2)cc1` [compound 6], the Rate of emergence [1, 3] was “A (less than 10%)”.
For `CCOc1ccc(OCCOc2ccccn2)cc1` [compound 8], the Rate of emergence [1, 3] was “A (less than 10%)”.
With `CCCOc1ccc(OCCOc2ccccn2)cc1` [compound 10] the Rate of emergence [1, 3] was “A (less than 10%)”.
`CCCCCOc1ccc(OCCOc2ccccn2)cc1` [compound 11] was tested, and the Rate of emergence [1, 3] was “A (less than 10%)”.
With `CCC(C)COc1ccc(OCCOc2ccccn2)cc1` (stereo not drawn) [compound 12] the Rate of emergence [1, 3] was “A (less than 10%)”, the inhibition at 0.3 ppm [2, 4] was 0% and the inhibition at 1 ppm ([2]; 1 ppm, Musca domestica larvae) was 20%. It also gave an inhibition at 3 ppm ([2]; 3 ppm, Musca domestica larvae) of 83%.
`CC(C)(C)CCOc1ccc(OCCOc2ccccn2)cc1` [compound 13] was tested, and the Rate of emergence [1, 3] was “A (less than 10%)”.
In the case of `CC(C)(C)COc1ccc(OCCOc2ccccn2)cc1` [compound 14], the Rate of emergence [1, 3] is reported as “A (less than 10%)”.
In the case of `CC(C)CCOc1ccc(OCC(C)Oc2ccccn2)cc1` (stereo not drawn) [compound 15], the Rate of emergence [1, 3] is reported as “A (less than 10%)”, the inhibition at 0.3 ppm [2, 4] is reported as 0% and the inhibition at 1 ppm ([2]; 1 ppm, Musca domestica larvae) is reported as 43%. For the same compound, the inhibition at 3 ppm ([2]; 3 ppm, Musca domestica larvae) was 93%.
For `CC(C)CCOc1ccc(OCCOc2nccs2)cc1` [compound 16], the Rate of emergence [1, 3] was “A (less than 10%)”, the inhibition at 0.3 ppm [2, 4] was 45% and the inhibition at 1 ppm ([2]; 1 ppm, Musca domestica larvae) was 96%. The inhibition at 3 ppm ([2]; 3 ppm, Musca domestica larvae) was 100%.
With `CC(C)CCOc1ccc(OC(C)COc2ncccn2)cc1` (stereo not drawn) [compound 17] the Rate of emergence [1, 3] was “A (less than 10%)”.
For `CC(C)CCOc1ccc(OC(C)COc2ccccn2)cc1` (stereo not drawn) [compound 18], the Rate of emergence [1, 3] was “A (less than 10%)”.
In the case of `CC(C)CCOc1ccc(OCC(C)Oc2ncccn2)cc1` (stereo not drawn) [compound 19], the Rate of emergence [1, 3] is reported as “A (less than 10%)”.
For `CC(C)CCOc1ccc(OCCOc2ncccn2)cc1` [compound 20], the Rate of emergence [1, 3] was “A (less than 10%)”.
In the case of `CC(C)CCOc1ccc(OCCSC2=NCCS2)cc1` [compound 21], the Rate of emergence [1, 3] is reported as “A (less than 10%)”.
In the case of `CC(C)CCOc1ccc(OCCSc2ncccn2)cc1` [compound 23], the Rate of emergence [1, 3] is reported as “A (less than 10%)”.
For `CC(C)CCOc1ccc(OC(C)COc2nccs2)cc1` (stereo not drawn) [compound 24], the Rate of emergence [1, 3] was “A (less than 10%)”.
In the case of `CC(C)CCOc1ccc(OCC(C)Oc2nccs2)cc1` (stereo not drawn) [compound 25], the Rate of emergence [1, 3] is reported as “A (less than 10%)”, the inhibition at 0.3 ppm [2, 4] is reported as 8% and the inhibition at 1 ppm ([2]; 1 ppm, Musca domestica larvae) is reported as 58%. The inhibition at 3 ppm ([2]; 3 ppm, Musca domestica larvae) was 100%.
In the case of `CC(C)COc1ccc(OCCOc2nccs2)cc1` [compound 26], the Rate of emergence [1, 3] is reported as “A (less than 10%)”, the inhibition at 0.3 ppm [2, 4] is reported as 11% and the inhibition at 1 ppm ([2]; 1 ppm, Musca domestica larvae) is reported as 61%. The inhibition at 3 ppm ([2]; 3 ppm, Musca domestica larvae) was 100%.
For `COC(C)(C)COc1ccc(OCCOc2nccs2)cc1` [compound 27], the Rate of emergence [1, 3] was “A (less than 10%)”.
`CC(C)COCc1ccc(OCCOc2ccccn2)cc1` [compound 28] was tested, and the Rate of emergence [1, 3] was “A (less than 10%)”, the inhibition at 0.3 ppm [2, 4] was 93% and the inhibition at 1 ppm ([2]; 1 ppm, Musca domestica larvae) was 100%. For the same compound, the inhibition at 3 ppm ([2]; 3 ppm, Musca domestica larvae) was 100%.
`CC(C)CCOc1ccc(OCCOc2nccs2)cc1Cl` [compound 30] was tested, and the Rate of emergence [1, 3] was “A (less than 10%)”.
`Cc1cc(OCCOc2nccs2)cc(C)c1OCCC(C)C` [compound 31] was tested, and the Rate of emergence [1, 3] was “A (less than 10%)”.
With `CC(C)CCOc1ccc(OCCOc2ccccn2)cc1Cl` [compound 32] the Rate of emergence [1, 3] was “A (less than 10%)”, the inhibition at 0.3 ppm [2, 4] was 3% and the inhibition at 1 ppm ([2]; 1 ppm, Musca domestica larvae) was 56%. For the same compound, the inhibition at 3 ppm ([2]; 3 ppm, Musca domestica larvae) was 94%.
For `Cc1cc(OCCOc2ccccn2)cc(C)c1OCCC(C)C` [compound 33], the Rate of emergence [1, 3] was “A (less than 10%)”.
For `CC(C)CCCc1ccc(OCCOc2ccccn2)cc1` [compound 34], the Rate of emergence [1, 3] was “A (less than 10%)”, the inhibition at 0.3 ppm [2, 4] was 41% and the inhibition at 1 ppm ([2]; 1 ppm, Musca domestica larvae) was 67%. It also gave an inhibition at 3 ppm ([2]; 3 ppm, Musca domestica larvae) of 100%.
With `CC(C)CCCc1ccc(OCCOc2nccs2)cc1` [compound 35] the Rate of emergence [1, 3] was “A (less than 10%)”, the inhibition at 0.3 ppm [2, 4] was 51% and the inhibition at 1 ppm ([2]; 1 ppm, Musca domestica larvae) was 100%. The inhibition at 3 ppm ([2]; 3 ppm, Musca domestica larvae) was 100%.
